Measurements reported in ChEMBL document CHEMBL3352746, “Synthesis and anticancer activity of quinopimaric and maleopimaric acids’ derivatives” (Bioorg Med Chem, 2014).

Columns and labels:
Mus musculus [1] = assay: Toxicity in mouse P388 cells implanted mouse assessed as mean spleen weight at 60 mg/kg, ip dosed daily for 5 days administered 24 hrs after tumor implantation; type: organism-based; parameters: dose 60 mg/kg, route intraperitoneal; conditions: in vivo
SW-620 = assay: Growth inhibition of human SW620 cells; type: functional
Mus musculus [2] = assay: Toxicity in mouse LLC cells implanted mouse assessed as mouse mortality at 40 mg/kg, ip dosed daily for 5 days; type: organism-based; parameters: dose 40 mg/kg, route intraperitoneal; conditions: in vivo, 120 h
MDA-MB-231 = assay: Growth inhibition of human MDA-MB-231 cells; type: functional
[3] = Growth inhibition of human RPMI8226 cells; type: functional, RPMI-8226
[4] = Antitumor activity against mouse AKATOL cells implanted in mouse assessed as tumor growth inhibition at 40 mg/kg, ip dosed daily for 5 days measured 16 days after treatment termination; type: functional; conditions: route intraperitoneal, read-out: TGI
[5] = Growth inhibition of human HCC2998 cells; type: functional
[6] = Antitumor activity against mouse AKATOL cells implanted in mouse assessed as tumor growth inhibition at 40 mg/kg, ip dosed daily for 5 days measured 12 days after treatment termination; type: functional; conditions: route intraperitoneal, read-out: TGI
[7] = Growth inhibition of human HCT116 cells; type: functional
Mus musculus [8] = assay: Toxicity in mouse P388 cells implanted mouse assessed as mouse mortality at 10 mg/kg, ip dosed daily for 5 days administered 24 hrs after tumor implantation; type: organism-based; parameters: dose 10 mg/kg, route intraperitoneal; conditions: in vivo
786-0 = assay: Growth inhibition of human 786-0 cells; type: functional
NCI-H460 = assay: Growth inhibition of human NCI-H460 cells; type: functional
[9] = Growth inhibition of human MOLT4 cells; type: functional
SK-MEL-28 = assay: Growth inhibition of human SK-MEL-28 cells; type: functional
SNB-75 = assay: Growth inhibition of human SNB75 cells; type: functional
Malme-3M = assay: Growth inhibition of human MALME-3M cells; type: functional
ACHN = assay: Growth inhibition of human ACHN cells; type: functional
[10] = read-out: pLC50 (the source's name) (converted)

COC(=O)[C@]1(C)CCC[C@]2(C)[C@H]3C[C@H]4C(C(C)C)=C[C@]3(CC[C@H]21)[C@@H]1/C(=N/O)CC/C(=N\O)[C@@H]14
Activity (Mus musculus [1]): 144 mg
GI50 (SW-620): 3.47 µM
CC50 (SW-620; [10]): 49 µM
TGI (SW-620; read-out: pTGI (converted)): 14.5 µM
Activity (Mus musculus [2]): Non-toxic
GI50 (MDA-MB-231): 7.24 µM
CC50 (MDA-MB-231; [10]): 56.2 µM
TGI (MDA-MB-231; read-out: pTGI (converted)): 22.4 µM
GI50 ([3]; RPMI-8226): 2.09 µM
CC50 ([3]; RPMI-8226, read-out: pLC50 (converted)): > 100 µM
TGI ([3]; RPMI-8226, read-out: pTGI (converted)): 4.79 µM
inhibition in vivo at 40 mg/kg [4]: 47%
GI50 ([5]; HCC 2998): 2.75 µM
CC50 ([5]; HCC 2998, read-out: pLC50 (the source's name) (converted)): 33.1 µM
TGI ([5]; HCC 2998, read-out: pTGI (converted)): 6.46 µM
inhibition in vivo at 40 mg/kg [6]: 34%
GI50 ([7]; HCT-116): 2.75 µM
CC50 ([7]; HCT-116, read-out: pLC50 (the source's name) (converted)): 47.9 µM
TGI ([7]; HCT-116, read-out: pTGI (converted)): 8.51 µM
Activity (Mus musculus [8]): Non-toxic
GI50 (786-0): 5.75 µM
CC50 (786-0; [10]): 53.7 µM
TGI (786-0; read-out: pTGI (converted)): 19.5 µM
GI50 (NCI-H460): 2.29 µM
CC50 (NCI-H460; [10]): 46.8 µM
TGI (NCI-H460; read-out: pTGI): 5.25 µM
GI50 ([9]; MOLT-4): 1.86 µM
CC50 ([9]; MOLT-4, read-out: pLC50 (the source's name) (converted)): 33.9 µM
TGI ([9]; MOLT-4, read-out: pTGI (converted)): 6.31 µM
GI50 (SK-MEL-28): 9.33 µM
CC50 (SK-MEL-28; [10]): 53.7 µM
TGI (SK-MEL-28; read-out: pTGI (converted)): 22.9 µM
GI50 (SNB-75): 4.9 µM
CC50 (SNB-75; [10]): 63.1 µM
TGI (SNB-75; read-out: pTGI (converted)): 20.4 µM
GI50 (Malme-3M): 5.89 µM
CC50 (Malme-3M; [10]): 50.1 µM
TGI (Malme-3M; read-out: pTGI (converted)): 20 µM
GI50 (ACHN): 3.31 µM
CC50 (ACHN; [10]): 32.4 µM
TGI (ACHN; read-out: pTGI (converted)): 10.5 µM
